Measured values: patent publication US4232017A, “Treatment of psychic disorders and inflammation with fused isoquinolines” (Gruppo Lepetit S.p.A., priority 1978, dated 1980)
Read-outs that look alike come from different tables or passages of the source.

Assays:
rats = assay: pole climbing avoidance test (antianxiety activity; Maffii); type: in vivo; details: for responders at 60 mg/kg / responders at 15 mg/kg / responders at 30 mg/kg / responders at 10 mg/kg: Rattus norvegicus, ip; for responders at 60 mg/kg: 60 mg/Kg i.p.; for responders at 15 mg/kg: 15 mg/Kg i.p.; for responders at 30 mg/kg: 30 mg/Kg i.p.; for influence on the CR and the UR: i.p., about 15 to about 60 mg/Kg; for responders at 10 mg/kg: 10 mg/Kg i.p.
Source text: The CNS-depressant activity in mammals was investigated by means of the general psychophysic screening method, as described by S. Irwin in Psychopharmacologia (Berl.), 13, 222-257, 1968. […] It is to be noted that the above parameters are directly connected with sedative, hypnotic and miorelaxing properties. The antianxiety activity of the compounds of the invention was investigated by means of the "pole climbing avoidance test", performed as described by G. Maffii in Journ. Pharm. Pharmacol., 11, 129, 1959, wherein a conditioned animal (generally a rat) is deconditioned i.e., is brought to its normal psychic behavior by administration of a suitable amount of the compound to be tested. According to G. Maffii, an inhibition of the secondary conditioned response (CR2) without a contemporary or coupled with a not significant inhibition of the primary conditioned response (CR) and the unconditioned response (UR) is a clear indication of an antianxiety effect since these last two parameters are connected with sedative and hypnotic properties.

[1] = Acute toxicity (LD50) in mice, oral; details: mouse, in vivo, p.o.
Description: (§1) Moreover, they display a considerably low toxicity as, generally, their LD50 values are never lower than 600 mg/Kg when given i.p. and never lower than 1000 mg/Kg when given orally to mice.

[2] = Acute toxicity (LD50) in mice, i.p.; details: mouse, in vivo, ip
Description: as §1

[3] = tested on: carrageenin induced edema in rats; assay: carrageenin induced edema test (Winter et al.); type: in vivo; details: for significant reduction of the edema over the control: oral, about 1/5 to about 1/10 of the LD50
Description: As stated above, the compounds of the invention show also a remarkable antiinflammatory action, which was ascertained by means of the "carrageenin induced edema test" in rats. Said test was performed according to the operative scheme proposed by C. A. Winter et al., Proc., Soc. Exptl.

[4] = read-out: CR2 (secondary conditioned response), Decond./Conditioned
[5] = read-out: CR (primary conditioned response), Decond./Conditioned
[6] = read-out: UR (unconditioned response), Decond./Conditioned

With `CCCCn1c(=O)c2ccccc2c2nc(C)sc21` [5(N-isomer), 4-Butyl-2-methyl-thiazolo[5,4-c]isoquinoline-5(4H)-one] the responders at 60 mg/kg (rats; [4]) was 50%, the responders at 60 mg/kg (rats; [5]) was 0% and the responders at 60 mg/kg (rats; [6]) was 0%. The LD50 [1] was > 1000 mg/kg, the LD50 [2] was 600 mg/kg and the “% Decrease of the induced edema” value ([3]; 50 mg/kg p.o.) was 28%. The “% Decrease of the induced edema” value ([3]; 100 mg/kg p.o.) was 37%, the “% Decrease of the induced edema” value ([3]; 200 mg/kg p.o.) was 51% and the “significant reduction of the edema over the control” value (shortened to “significant reduction of the edema”) [3] was ≥ 40%.

Molecule `CCCCOc1nc2sc(C)nc2c2ccccc12` [5(O-isomer), 5-butoxy-2-methyl-thiazolo[5,4-c]isoquinoline] has a responders at 60 mg/kg (rats; [4]) of 50%, a responders at 60 mg/kg (rats; [5]) of 0% and a responders at 60 mg/kg (rats; [6]) of 0%. It also gave an LD50 [2] of 600 mg/kg.

In the case of `Cc1nc2c3ccccc3c(=O)n(C)c2s1` [Example 1, 2,4-Dimethyl-thiazolo[5,4-c]isoquinoline-5(4H)-one], the LD50 [1] is reported as > 1000 mg/kg, the “% Decrease of the induced edema” value ([3]; 20 mg/kg p.o.) is reported as 25% and the “% Decrease of the induced edema” value ([3]; 50 mg/kg p.o.) is reported as 38%. The “% Decrease of the induced edema” value ([3]; 100 mg/kg p.o.) was 46%, the “% Decrease of the induced edema” value ([3]; 200 mg/kg p.o.) was 61% and the “significant reduction of the edema” value [3] was ≥ 40%.

`CCn1c(=O)c2ccccc2c2nc(C)sc21` [Example 2(N-isomer), 4-Ethyl-2-methyl-thiazolo[5,4-c]isoquinoline-5(4H)-one] showed a responders at 15 mg/kg (rats; [4]) of 50%, a responders at 15 mg/kg (rats; [5]) of 0% and a responders at 15 mg/kg (rats; [6]) of 0%. It also gave a responders at 30 mg/kg (rats; [4]) of 80%, a responders at 30 mg/kg (rats; [5]) of 0% and a responders at 30 mg/kg (rats; [6]) of 0%. The “influence on the CR and the UR” value (rats) was “practically no influence” and the LD50 [2] was 400 mg/kg.

In the case of `CCc1nc2c3ccccc3c(=O)n(C)c2s1` [Example 9, 2-Ethyl-4-methyl-thiazolo[5,4-c]isoquinoline-5(4H)-one], the LD50 [1] is reported as 1000 mg/kg, the “% Decrease of the induced edema” value ([3]; 50 mg/kg p.o.) is reported as 25% and the “% Decrease of the induced edema” value ([3]; 100 mg/kg p.o.) is reported as 31%. The “% Decrease of the induced edema” value ([3]; 200 mg/kg p.o.) was 40% and the “significant reduction of the edema” value [3] was ≥ 40%.

For `Cc1nn(C)c2nc(OCCO)c3ccccc3c12` [Example 20, 5-(2-Hydroxyethoxy)-1,3-dimethyl-3H-pyrazolo[3,4-c]isoquinoline], the responders at 10 mg/kg (rats; [4]) was 60%, the responders at 10 mg/kg (rats; [5]) was 10% and the responders at 10 mg/kg (rats; [6]) was 0%. The responders at 30 mg/kg (rats; [4]) was 70%, the responders at 30 mg/kg (rats; [5]) was 30% and the responders at 30 mg/kg (rats; [6]) was 0%. The responders at 60 mg/kg (rats; [4]) was 90%, the responders at 60 mg/kg (rats; [5]) was 30% and the responders at 60 mg/kg (rats; [6]) was 0%. For the same molecule, the “influence on the CR and the UR” value (rats) was “practically no influence” and the LD50 [2] was > 600 mg/kg.

Work on `CCCCOc1nc2c(c(C)nn2C)c2ccccc12` [Example 24, 5-Butoxy-1,3-dimethyl-3H-pyrazolo[3,4-c]isoquinoline] yielded a responders at 30 mg/kg (rats; [4]) of 60%, a responders at 30 mg/kg (rats; [5]) of 0% and a responders at 30 mg/kg (rats; [6]) of 0%. For the same molecule, the responders at 60 mg/kg (rats; [4]) was 100%, the responders at 60 mg/kg (rats; [5]) was 30% and the responders at 60 mg/kg (rats; [6]) was 0%. The “influence on the CR and the UR” value (rats) was “practically no influence”, the LD50 [1] was 1000 mg/kg and the LD50 [2] was > 600 mg/kg. For the same molecule, the “% Decrease of the induced edema” value ([3]; 50 mg/kg p.o.) was 26%, the “% Decrease of the induced edema” value ([3]; 100 mg/kg p.o.) was 38% and the “% Decrease of the induced edema” value ([3]; 200 mg/kg p.o.) was 45%. The “significant reduction of the edema” value [3] was ≥ 40%.

Work on `CCc1nn(C)c2nc(OCCO)c3ccccc3c12` [Example 25, 1-Ethyl-5-hydroxyethoxy-3-methyl-3H-pyrazolo[3,4-c]isoquinoline] yielded a responders at 30 mg/kg (rats; [4]) of 50%, a responders at 30 mg/kg (rats; [5]) of 0% and a responders at 30 mg/kg (rats; [6]) of 0%. It also gave a responders at 60 mg/kg (rats; [4]) of 70%, a responders at 60 mg/kg (rats; [5]) of 0% and a responders at 60 mg/kg (rats; [6]) of 0%. The “influence on the CR and the UR” value (rats) was “practically no influence” and the LD50 [2] was > 600 mg/kg.

Molecule `CCc1nn(C)c2nc(OCC(C)=O)c3ccccc3c12` [Example 26, 5-Acetylmethoxy-1-ethyl-3-methyl-3H-pyrazolo[3,4-c]isoquinoline] has a responders at 30 mg/kg (rats; [4]) of 50%, a responders at 30 mg/kg (rats; [5]) of 0% and a responders at 30 mg/kg (rats; [6]) of 0%. The responders at 60 mg/kg (rats; [4]) was 100%, the responders at 60 mg/kg (rats; [5]) was 0% and the responders at 60 mg/kg (rats; [6]) was 0%. For the same molecule, the “influence on the CR and the UR” value (rats) was “practically no influence”, the LD50 [1] was > 1000 mg/kg and the LD50 [2] was > 600 mg/kg. The “% Decrease of the induced edema” value ([3]; 50 mg/kg p.o.) was 30%, the “% Decrease of the induced edema” value ([3]; 100 mg/kg p.o.) was 37% and the “% Decrease of the induced edema” value ([3]; 200 mg/kg p.o.) was 43%. For the same molecule, the “significant reduction of the edema” value [3] was ≥ 40%.

With `Cc1nn(C)c2c1c1ccccc1c(=O)n2CCN1CCN(c2ccccc2)CC1.Cl` [Example 38, 1,3-Dimethyl-4-[2-(4-phenyl-1-piperazinyl)ethyl]-3H-pyrazolo[3,4-c]isoquinoline-5(4H)-one hydrochloride] the responders at 30 mg/kg (rats; [4]) was 90%, the responders at 30 mg/kg (rats; [5]) was 10% and the responders at 30 mg/kg (rats; [6]) was 0%. The responders at 60 mg/kg (rats; [4]) was 100%, the responders at 60 mg/kg (rats; [5]) was 40% and the responders at 60 mg/kg (rats; [6]) was 0%. For the same molecule, the “influence on the CR and the UR” value (rats) was “practically no influence” and the LD50 [2] was > 600 mg/kg.
